Legend:
[1] = test system: C. crescentus CB15N; assay: Minimum biofilm inhibitory concentration (bMIC); assay type: cell-based, Caulobacter crescentus
Method: Determination of the minimum biofilm inhibitory concentration of growth (bMIC) and biofilm eradication concentration (MBEC). Overnight cultures of C. crescentus and S. aureus were grown and diluted 100-fold into appropriate nutrient media. Aliquots of the diluted suspension were transferred into wells of 96-well plates (150 μL/well). 2-fold serial dilutions were performed for compound-containing wells. For every experiment, three replicates for each compound concentration tested were included. After transferring aliquots of the suspension, the plates were closed with specialized lids that have protruding pins (Nunc STP System), and the plates were sealed using Parafilm®. The plates were incubated in a static incubator at 30° C. (C. crescentus) or 37° C. (S. aureus) for 24 hours. After the cells had formed biofilms on the surface of the pins, the pins were rinsed by dipping them in M2 (C. crescentus) or PBS (S. aureus) solutions. To rinse the pins, clean, sterile 96-well plates were used (aliquots of 200 μL/well); each rinse lasted 10 sec. After washing away planktonic cells loosely bound to biofilms, the pins were inserted into a 96-well plate that was pre-aliquoted with nutrient media containing antibiotics (2-fold dilutions, a final volume of 150 μL/well). The plates were sealed with Parafilm®, and incubated for 17 hours, and the bMIC was measured at the end of the incubation by visual inspection. […] The plates were sealed with Parafilm®, incubated for 24 hours, and the MBEC was measured at the end of the incubation by visual inspection.
Membrane-active compounds are also efficient at eradicating biofilm-associated cells (Table 2). […] To determine the efficacy of antibiotics against biofilms, the minimum biofilm inhibitory concentration (bMIC) and the minimum biofilm eradication concentration (MBEC) were measured. […] After 24 hours of exposure to compounds, the lowest concentration of antibiotic that inhibited planktonic cell growth in the wells (bMIC) was determined.

[2] = test system: S. aureus FRI 100; assay: Minimum stationary-bactericidal concentration (MSC); assay type: cell-based, Staphylococcus aureus; details: for MSC: S. aureus FRI 100, stationary cells, 24 hours
Method: Determination of the Minimum Stationary-Bactericidal Concentration.
Cultures of C. crescentus (24 hour incubation) and S. aureus cells (5 day incubation) were grown from single colonies. Cells were collected by centrifugation (8500 rpm for 2.5 minutes) and re-suspended in M2 salt solution (for C. crescentus; 1.74 g/L Na2HPO4, 1.06 g/L KH2PO4, and 0.5 g/L NH4Cl) or phosphate-buffered saline (for S. aureus; PBS, Fisher Scientific). The centrifugation and re-suspension was repeated two more times. After the repeated washing steps, the cell suspension was diluted 10-fold to achieve approximately 10^8 cells/mL. Aliquots of the diluted cell suspension were transferred into wells of a 96-well plate (100 μL/well), and 2-fold serial dilutions were performed to test a range of antibiotic concentrations. The plate was sealed with Parafilm® and incubated for 24 hours at room temperature in the dark. After incubation, 50 μl was removed from each well to spread on nutrient agar plates (1.5% agar in PYE for C. crescentus, and LB for S. aureus). The colonies on each plate were counted after growing the cells for 1-2 days. For determining the kinetics of bactericidal activity of DCAP on stationary cultures, the washed cells were diluted by 100-fold in appropriate solutions and tested using a single concentration of the compound while including a DMSO control sample. Cell suspensions were kept in closed microcentrifuge tubes instead of the wells of 96-well plates. 100 μL of the suspensions was removed for plating at each time point. All MSC experiments were performed in static conditions.
In addition to its activity against actively growing bacteria, DCAP kills cells in stationary phase (Table 3). This property was tested against C. crescentus and S. aureus. […] To ensure that bacteria were deprived of nutrients, the cells were grown into late stationary phase (i.e., 24 hours for C. crescentus and 5 days for S. aureus). These cells were collected, suspended in isotonic solutions devoid of amino acids or sugars, and treated with a small molecule (DMSO, DCAP, CCCP or ampicillin). Cell viability was measured over time by plating culture aliquots on non-selective, solid growth media. The minimum concentration of antibiotic required to completely eliminate colony formation was designated as the minimum stationary-bactericidal concentration (MSC). […] CCCP inhibited the proliferation of C. crescentus cells regardless of their physiological status. However, the MSC of CCCP for S. aureus was >300-fold higher than the MIC. This dramatic decrease in the effectiveness of CCCP in S. aureus may be due to changes in membrane composition as cells adjust their metabolism in nutrient-deprived conditions.

[3] = test system: S. aureus FRI 100; assay: MIC of bacterial growth, macrodilution (Table 2); assay type: cell-based; details: Staphylococcus aureus, FRI100; S. aureus FRI 100, actively growing cells
Method: Bacterial strains and growth conditions. Luria-Bertani (LB) media (10 g/L tryptone, 10 g/L NaCl, 5 g/L yeast extract, pH 7.2) was used to grow B. subtilis 168, S. aureus FRI100, and P. aeruginosa K1115 strains. […] All cultures were grown at 37° C., except for C. crescentus (30° C.). All cultures were grown while shaking at 200 rpm.
Determination of the minimum inhibitory concentration (MIC) of bacterial growth. The MIC of various organisms in liquid media was determined using the macrodilution method according to the NCCLS guidelines. For the starting inoculum, cultures were diluted to contain approximately 5×10^5 cells/mL in growth media. To create a two-fold dilution series for the macrodilution technique, each compound was added to the first culture tube (4 mL total volume) at the highest concentration. 2 mL of this culture was diluted into an equal volume of inoculated media (a two-fold dilution). The final volume for each culture was 2 mL.

Row | SMILES | bMIC [1] [µM] | MSC [2] [µM] | Minimum time required to obtain the MSC ([2]; S. aureus, data not shown) [h] | MIC [3] [µM] | MSC relative to MIC ([2]; S. aureus, stationary vs growing cells) [fold]
1 | OCC(CO)(CO)NCC(O)Cn1c2ccc(Cl)cc2c2cc(Cl)ccc21 (centres unmarked) [DCAP, 2-((3-(3,6-dichloro-9H-carbazol-9-yl)-2-hydroxypropyl)amino)-2-(hydroxymethyl)propane-1,3-diol] | 20 | 75 | 6 | 50 | –
2 | N#CC(C#N)=NNc1cccc(Cl)c1 [CCCP, carbonyl cyanide m-chlorophenyl hydrazone] | 5 | >400 | – | 1.25 | > 300

From patent publication US10314816B2, “Antimicrobial compounds, compositions and methods of use thereof” (Wisconsin Alumni Research Foundation, priority 2012, dated 2019)
